Laboratory results reported in ChEMBL document CHEMBL5154927, “Discovery of Novel Bicyclic Phenylselenyl-Containing Hybrids: An Orally Bioavailable, Potential, and Multiacting Class of Estrogen Receptor Modulators against Endocrine-Resistant Breast Cancer” (J Med Chem, 2022).
pIC50: −log10 of the molar value. The source made the active and inactive calls. The calls are words filed in the database; no cut-off is given here.

Tests used:
[1] = test system: MCF7; experiment: cells; settings: Homo sapiens, MCF7, 72 h
Description: Antiproliferative activity against human MCF7 cells assessed as reduction in cell viability measured after 72 hrs by Cell Counting Kit-8 assay

[2] = Antiproliferative activity against human MCF-10A cells assessed as reduction in cell viability measured after 72 hrs by Cell Counting Kit-8 assay; assay type: toxicity, cell-based
[3] = Selectivity index, ratio of IC50 for human MCF-10A cells to IC50 for human MCF-7 cells; assay type: toxicity; settings: MCF-10A cells and MCF-7 cells, read-out: Ratio IC50
[4] = Antiproliferative activity against tamoxifen-resistant human LCC2 cells assessed as reduction in cell viability measured after 72 hrs by Cell Counting Kit-8 assay; assay type: functional, cell-based; settings: LCC2, 72 h
[5] = test system: MDA-MB-231; experiment: cells; settings: Homo sapiens, MDA-MB-231, 72 h
Description: Antiproliferative activity against human MDA-MB-231 cells assessed as reduction in cell viability measured after 72 hrs by Cell Counting Kit-8 assay

[6] = test system: MCF7; experiment: Induction of apoptosis in human MCF7 cells at 20 uM incubated for 48 hrs by annexin V-FITC staining based flow cytometry; assay type: functional, cell-based
[7] = target: T1, Hexokinase-1 (Homo sapiens) (UniProt P19367); experiment: Binding affinity to hexokinase-1 in human MCF7 cell lysate assessed as HK-1 pull down by western blotting based Co-immunoprecipitation assay; assay type: subcellular; settings: filed as antagonist
T1 sequence (whole entry): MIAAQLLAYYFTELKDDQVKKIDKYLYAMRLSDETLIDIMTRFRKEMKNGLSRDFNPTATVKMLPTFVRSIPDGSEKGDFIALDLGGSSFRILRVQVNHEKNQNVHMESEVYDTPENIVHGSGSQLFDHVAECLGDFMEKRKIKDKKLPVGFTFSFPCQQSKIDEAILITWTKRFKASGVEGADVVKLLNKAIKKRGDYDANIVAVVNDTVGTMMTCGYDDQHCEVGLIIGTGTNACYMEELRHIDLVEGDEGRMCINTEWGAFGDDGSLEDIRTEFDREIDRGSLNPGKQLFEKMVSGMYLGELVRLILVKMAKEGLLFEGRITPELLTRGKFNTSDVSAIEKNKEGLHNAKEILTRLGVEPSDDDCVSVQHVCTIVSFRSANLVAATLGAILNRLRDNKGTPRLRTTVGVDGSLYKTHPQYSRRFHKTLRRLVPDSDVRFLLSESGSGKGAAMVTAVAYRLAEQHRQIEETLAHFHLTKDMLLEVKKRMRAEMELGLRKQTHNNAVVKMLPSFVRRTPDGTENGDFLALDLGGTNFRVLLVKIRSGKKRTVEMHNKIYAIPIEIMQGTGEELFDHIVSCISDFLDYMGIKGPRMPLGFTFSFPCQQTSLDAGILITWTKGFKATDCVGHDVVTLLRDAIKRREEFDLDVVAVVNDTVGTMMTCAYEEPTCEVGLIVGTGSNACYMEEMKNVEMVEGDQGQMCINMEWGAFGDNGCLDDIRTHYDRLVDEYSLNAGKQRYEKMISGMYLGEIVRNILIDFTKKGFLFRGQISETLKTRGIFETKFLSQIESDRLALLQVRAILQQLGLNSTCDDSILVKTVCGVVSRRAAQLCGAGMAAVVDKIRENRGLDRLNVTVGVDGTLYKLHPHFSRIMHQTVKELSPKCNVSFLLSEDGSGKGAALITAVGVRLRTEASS

[8] = species: Homo sapiens; experiment: Selectivity ratio of relative binding affinity for human ERalpha to relative binding affinity for human ERbeta
[9] = target: Estrogen receptor beta (Homo sapiens) (UniProt Q92731); experiment: Relative binding affinity to human ERbeta measured after 2 hrs by competitive fluorometric binding assay relative to estradiol
Sequence of Estrogen receptor beta (Homo sapiens) (Q92731 whole entry): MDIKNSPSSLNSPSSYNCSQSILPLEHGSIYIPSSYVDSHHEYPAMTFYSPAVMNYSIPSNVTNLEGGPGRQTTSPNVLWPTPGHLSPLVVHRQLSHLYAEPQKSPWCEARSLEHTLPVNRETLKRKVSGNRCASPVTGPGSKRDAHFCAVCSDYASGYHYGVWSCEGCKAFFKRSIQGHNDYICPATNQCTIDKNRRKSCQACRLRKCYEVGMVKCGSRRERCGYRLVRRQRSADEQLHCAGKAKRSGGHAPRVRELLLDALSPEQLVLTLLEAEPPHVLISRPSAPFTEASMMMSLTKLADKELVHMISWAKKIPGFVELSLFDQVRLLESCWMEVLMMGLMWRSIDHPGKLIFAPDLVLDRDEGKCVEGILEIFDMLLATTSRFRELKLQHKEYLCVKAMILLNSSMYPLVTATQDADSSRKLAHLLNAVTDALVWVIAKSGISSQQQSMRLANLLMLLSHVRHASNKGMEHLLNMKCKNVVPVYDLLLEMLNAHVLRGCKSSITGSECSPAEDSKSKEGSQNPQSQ

[10] = test system: MCF7; experiment: Antitumor activity against human MCF7 cells xenografted in BALB/C mouse assessed as decrease in cell proliferation at 20 mg/kg, po by Ki67 staining based immunohistochemical analysis; assay type: functional, organism-based
[11] = test system: MCF7; experiment: Antitumor activity against human MCF7 cells xenografted in BALB/C mouse assessed as increase in tumor necrosis area at 20 mg/kg, po […]; assay type: functional, organism-based

| pIC50 [1] | pIC50 [5] | Activity [7] | Ratio [8] | RBA [9] [%] | SMILES | IC50 at 72 h [2] [µM] | selectivity ratio [3] | pIC50 [4] | Activity [6] | Activity [10] | Activity [11] |
| --- | --- | --- | --- | --- | --- | --- | --- | --- | --- | --- | --- |
| 6.39 | 5.07 | – | – | – | Cc1ccc(OS(=O)(=O)C2CC3OC2C(c2ccc([Se]c4ccccc4)cc2)=C3c2ccc(O)cc2)cc1 (centres undefined) | 18.5 | 45.1 | 5.17 | – | – | – |
| 6.26 | 4.76 | – | – | – | O=S(=O)(Oc1ccc(Br)cc1)C1CC2OC1C(c1ccc(O)cc1)=C2c1ccc([Se]c2ccccc2)cc1 (centres undefined) | 43.2 | 75.6 | < 4.51 | – | – | – |
| 6.51 | 4.74 | – | – | – | O=S(=O)(Oc1ccc(Br)cc1)C1CC2OC1C(c1ccc([Se]c3ccccc3)cc1)=C2c1ccc(O)cc1 (centres undefined) | 28.2 | 90.8 | 4.60 | – | – | – |
| 6.82 | 4.66 | – | – | – | O=S(=O)(Oc1ccc(C(F)(F)F)cc1)C1CC2OC1C(c1ccc(O)cc1)=C2c1ccc([Se]c2ccccc2)cc1 (centres undefined) | 14.1 | 94.3 | < 4.51 | – | – | – |
| 6.18 | 4.98 | – | – | – | COc1cccc(OS(=O)(=O)C2CC3OC2C(c2ccc(O)cc2)=C3c2ccc([Se]c3ccccc3)cc2)c1 (centres undefined) | 17.9 | 27.1 | 5.32 | – | – | – |
| 5.71 | 4.91 | – | – | – | O=S(=O)(Oc1ccc(O)cc1)C1CC2OC1C(c1ccc(O)cc1)=C2c1ccc([Se]c2ccccc2)cc1 (centres undefined) | 16.7 | 8.54 | < 4.51 | – | – | – |
| 6.27 | 4.77 | – | – | – | O=S(=O)(Oc1cccc(C(F)(F)F)c1)C1CC2OC1C(c1ccc([Se]c3ccccc3)cc1)=C2c1ccc(O)cc1 (centres undefined) | 41 | 75.9 | 5.06 | – | – | – |
| 5.87 | 4.72 | – | – | – | O=S(=O)(Oc1cccc(Br)c1)C1CC2OC1C(c1ccc([Se]c3ccccc3)cc1)=C2c1ccc(O)cc1 (centres undefined) | 17.3 | 12.7 | < 4.51 | – | – | – |
| 5.95 | 4.34 | – | – | – | O=S(=O)(Oc1cccc2ccccc12)C1CC2OC1C(c1ccc(O)cc1)=C2c1ccc([Se]c2ccccc2)cc1 (centres undefined) | > 60 | > 53.1 | – | – | – | – |
| 6.80 | < 4.22 | – | – | – | O=S(=O)(Oc1ccccc1)C1CC2OC1C(c1ccc(O)cc1)=C2c1ccc([Se]c2ccccc2)cc1 (centres undefined) | > 60 | > 375 | – | – | – | – |
| 7.15 | 5.15 | – | – | – | O=S(=O)(Oc1cccc(O)c1)C1CC2OC1C(c1ccc(O)cc1)=C2c1ccc([Se]c2ccccc2)cc1 (centres undefined) | 7.41 | 106 | 5.54 | – | – | – |
| 6.85 | 4.96 | – | – | – | O=S(=O)(Oc1ccc(Cl)cc1)C1CC2OC1C(c1ccc([Se]c3ccccc3)cc1)=C2c1ccc(O)cc1 (centres undefined) | 26.1 | 186 | 5.16 | – | – | – |

The next lines start with the compound.

| SMILES | pIC50 [1] | pIC50 [5] | Activity [7] | Ratio [8] | RBA [9] [%] | IC50 at 72 h [2] [µM] | selectivity ratio [3] | pIC50 [4] | Activity [6] | Activity [10] | Activity [11] |
| --- | --- | --- | --- | --- | --- | --- | --- | --- | --- | --- | --- |
| O=S(=O)(Oc1ccccc1)C1CC2OC1C(c1ccc(O)cc1)=C2c1ccc(O)cc1 (centres undefined) | 4.84 | 4.49 | – | – | – | > 60 | > 4.11 | < 4.51 | Active | – | – |
| COc1ccc(OS(=O)(=O)C2CC3OC2C(c2ccc(O)cc2)=C3c2ccc([Se]c3ccccc3)cc2)cc1 (centres undefined) | 5.13 | < 4.22 | – | – | – | > 60 | > 8.04 | – | – | – | – |
| O=S(=O)(Oc1cccc([Se]c2ccccc2)c1)C1CC2OC1C(c1ccc(O)cc1)=C2c1ccc(O)cc1 (centres undefined) | 5.77 | 4.59 | – | – | – | 50.3 | 29.4 | < 4.51 | – | – | – |
| CC/C(=C(\c1ccc(O)cc1)c1ccc(OCCN(C)C)cc1)c1ccccc1 [AFIMOXIFENE] | – | 4.73 | – | – | – | – | – | 4.65 | – | – | – |
| Cc1ccc(OS(=O)(=O)C2CC3OC2C(c2ccc(O)cc2)=C3c2ccc([Se]c3ccccc3)cc2)cc1 (centres undefined) | 5.40 | 5.09 | – | – | – | 18.3 | 4.6 | 5.22 | – | – | – |
| O=C(CCC[C@@H]1SC[C@@H]2NC(=O)N[C@@H]21)Nc1cccc2c(OS(=O)(=O)C3CC4OC3C(c3ccc(O)cc3)=C4c3ccc(O)cc3)cccc12 (some centres undefined) | – | – | Active | 3.4 | 0.1 | – | – | – | – | – | – |
| O=S(=O)(Oc1cccc(Cl)c1)C1CC2OC1C(c1ccc([Se]c3ccccc3)cc1)=C2c1ccc(O)cc1 (centres undefined) | 6.74 | 4.38 | – | – | – | 17.6 | 97.8 | < 4.51 | – | – | – |
| CC/C(=C(\c1ccccc1)c1ccc(OCCN(C)C)cc1)c1ccccc1 | – | – | – | – | – | – | – | – | – | Active | Active |
| Cc1cccc(OS(=O)(=O)C2CC3OC2C(c2ccc([Se]c4ccccc4)cc2)=C3c2ccc(O)cc2)c1 (centres undefined) | 6.92 | 4.90 | – | – | – | 30.6 | 255 | 5.07 | – | – | – |
| O=S(=O)(Oc1ccc(C(F)(F)F)cc1)C1CC2OC1C(c1ccc([Se]c3ccccc3)cc1)=C2c1ccc(O)cc1 (centres undefined) | 6.35 | 4.56 | – | – | – | 18.5 | 41.2 | – | – | – | – |
| O=S(=O)(Oc1ccc(Cl)cc1)C1CC2OC1C(c1ccc(O)cc1)=C2c1ccc([Se]c2ccccc2)cc1 (centres undefined) | 6.43 | 4.96 | – | – | – | 32 | 86.4 | 5.18 | – | – | – |
| COc1ccc(OS(=O)(=O)C2CC3OC2C(c2ccc([Se]c4ccccc4)cc2)=C3c2ccc(O)cc2)cc1 (centres undefined) | 6.68 | 5.01 | – | – | – | 29.1 | 138 | 5.23 | – | – | – |
| O=S(=O)(Oc1ccc([Se]c2ccccc2)cc1)C1CC2OC1C(c1ccc(O)cc1)=C2c1ccc(O)cc1 (centres undefined) | 6.10 | 4.50 | – | – | – | > 60 | > 75 | 4.69 | – | – | – |
